{"source": "patent US20020137929A1", "about": "“1 - (3-heterocyclylphenyl) isothiourea, -isourea, -guanidine and -amidine herbicidal agents” (Intellectual Property Department, BASF Aktiengesellschaft, priority 1998, published 2002)", "key": {"[1]": {"system": "GLXMAW (Soybean, Williams)", "experiment": "Preemergence herbicidal evaluation", "format": "in vivo, Glycine max, (L.) Merr. cv Williams", "conditions": "rated 4-5 weeks after treatment", "summary_of_the_method": "(§1)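 Preemergence soil application of compound, sprayed in aqueous acetone at rates equivalent to about 0.0156 to 0.500 kg per hectare onto freshly sown cups. Plant response was judged by eye on a 0-9 scale four to five weeks later.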"}, "ECHCG (Barnyardgrass)": {"system": "ECHCG (Barnyardgrass)", "experiment": "Postemergence herbicidal evaluation", "format": "in vivo, Echinochloa crus-galli", "conditions": "postemergence", "summary_of_the_method": "(§2)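 Compound is applied as a foliar spray to seedlings about two weeks old, formulated in equal parts acetone and water with 0.5% TWEEN 20 and delivered at 40 psi to give about 0.0156–0.500 kg per hectare. Injury is rated visually 0–9 after four to five weeks.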"}, "[2]": {"system": "CHEAL (Lambsquarters, Common)", "experiment": "Postemergence herbicidal evaluation", "format": "in vivo, Chenopodium album", "conditions": "postemergence", "summary_of_the_method": "as §2"}, "GALAP (Galium)": {"system": "GALAP (Galium)", "experiment": "Preemergence herbicidal evaluation", "format": "in vivo, Galium aparine", "conditions": "rated 4-5 weeks after treatment", "summary_of_the_method": "as §1"}, "CASOB (Sicklepod)": {"system": "CASOB (Sicklepod)", "experiment": "Postemergence herbicidal evaluation", "format": "in vivo, Cassia obtusifolia", "conditions": "postemergence", "summary_of_the_method": "as §2"}, "CYPIR (Rice Flatsedge)": {"system": "CYPIR (Rice Flatsedge)", "experiment": "Preemergence weed control under flooded paddy conditions", "format": "in vivo, Cyperus iria", "conditions": "rated 3-4 weeks after treatment", "summary_of_the_method": "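Seeds or propagules sown in silt loam kept flooded 1.5-3 cm; compounds in 50/50 acetone/water pipetted into flood water at about 0.0313 to 0.500 kg/ha. Greenhouse; visual 0-9 rating versus untreated control 3-4 weeks after treatment.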"}, "ORYSAT (Rice, Tebonnet) [3]": {"system": "ORYSAT (Rice, Tebonnet)", "experiment": "Postemergence herbicidal evaluation", "format": "in vivo, Oryza sativa, (L.) Tebonnet", "conditions": "postemergence", "summary_of_the_method": "as §2"}, "CYPSE (Flatsedge)": {"system": "CYPSE (Flatsedge)", "experiment": "Postemergence weed control under flooded paddy conditions", "format": "in vivo, Cyperus serotinus", "conditions": "postemergence weeds, 3-4 weeks after treatment", "summary_of_the_method": "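Containers holding 3–5 cm weeds and rice at 1.5–2.5 leaves are flooded to 1.5–3 cm above soil. Compound in 50/50 v/v aqueous/acetone is then added directly to the water, about 0.0313–0.500 kg/ha. Plants are kept in the greenhouse and rated 0–9 visually at 3–4 weeks.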"}, "[4]": {"system": "TRZAWR (Wheat, Winter, cv Riband)", "experiment": "Preemergence herbicidal evaluation", "format": "in vivo, Triticum aestivum", "conditions": "rated 4-5 weeks after treatment", "summary_of_the_method": "as §1"}, "SETVI (Foxtail, Green)": {"system": "SETVI (Foxtail, Green)", "experiment": "Preemergence herbicidal evaluation", "format": "in vivo, Setaria viridis", "conditions": "rated 4-5 weeks after treatment", "summary_of_the_method": "as §1"}, "ZEAMX (Corn, Field)": {"system": "ZEAMX (Corn, Field)", "experiment": "Preemergence herbicidal evaluation", "format": "in vivo, Zea mays", "conditions": "rated 4-5 weeks after treatment", "summary_of_the_method": "as §1"}, "ORYSAT (Rice, Tebonnet) [5]": {"system": "ORYSAT (Rice, Tebonnet)", "experiment": "Preemergence herbicidal evaluation", "format": "in vivo, Oryza sativa, (L.) Tebonnet", "conditions": "rated 4-5 weeks after treatment", "summary_of_the_method": "as §1"}, "[6]": {"system": "SAGPY (Arrowhead (Pygmaea))", "experiment": "Preemergence weed control under flooded paddy conditions", "format": "in vivo, Sagittaria pygmaea", "conditions": "rated 3-4 weeks after treatment", "summary_of_the_method": "(§3)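 Seeds or propagules sown in top 0.5 cm of silt loam soil, flooded 1.5 to 3 cm above surface throughout. Compound in 50/50 v/v aqueous/acetone pipetted into flood water at about 0.0313 to 0.500 kg/ha. Visual 0-9 rating versus control after three to four weeks in greenhouse.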"}, "MOOVA (Monochoria)": {"system": "MOOVA (Monochoria)", "experiment": "Preemergence weed control under flooded paddy conditions", "format": "in vivo, Monochoria vaginalis", "conditions": "rated 3-4 weeks after treatment", "summary_of_the_method": "as §3"}}}
{"smiles": "CCOC(=O)CN1C(=O)CO/C1=N/c1cc(-n2c(=O)cc(C(F)(F)F)n(C)c2=O)c(F)cc1Cl", "note": "[Compound 22, Ethyl 2-{{2-chloro-5-[3,6-dihydro-3-methyl-2,6-dioxo-4-(trifluoromethyl)-1(2H)-pyrimidinyl]-4-fluorophenyl}imino}-4-oxo-3-oxazolidineacetate]", "values": [{"measurement": "GLXMAW preemergence herbicidal rating", "setting": "[1]; rate 0.0156 kg/ha", "value": 0.0}, {"measurement": "GLXMAW preemergence herbicidal rating", "setting": "[1]; rate 0.0313 kg/ha", "value": 0.0}, {"measurement": "GLXMAW preemergence herbicidal rating", "setting": "[1]; rate 0.0625 kg/ha", "value": 3.0}, {"measurement": "GLXMAW preemergence herbicidal rating", "setting": "[1]; rate 0.1250 kg/ha", "value": 7.0}, {"measurement": "GLXMAW preemergence herbicidal rating", "setting": "[1]; rate 0.2500 kg/ha", "value": 9.0}, {"measurement": "ECHCG herbicidal rating", "setting": "ECHCG (Barnyardgrass); rate 0.0158 kg/ha", "value": 2.0}, {"measurement": "ECHCG herbicidal rating", "setting": "ECHCG (Barnyardgrass); rate 0.0315 kg/ha", "value": 2.0}, {"measurement": "ECHCG herbicidal rating", "setting": "ECHCG (Barnyardgrass); rate 0.0630 kg/ha", "value": 1.0}, {"measurement": "CHEAL herbicidal rating", "setting": "[2]; rate 0.0158 kg/ha", "value": 4.0}, {"measurement": "CHEAL herbicidal rating", "setting": "[2]; rate 0.0315 kg/ha", "value": 6.0}, {"measurement": "CHEAL herbicidal rating", "setting": "[2]; rate 0.0630 kg/ha", "value": 3.0}, {"measurement": "GALAP preemergence herbicidal rating", "setting": "GALAP (Galium); rate 0.0156 kg/ha", "value": 0.0}, {"measurement": "GALAP preemergence herbicidal rating", "setting": "GALAP (Galium); rate 0.0313 kg/ha", "value": 0.0}, {"measurement": "GALAP preemergence herbicidal rating", "setting": "GALAP (Galium); rate 0.0625 kg/ha", "value": 0.0}, {"measurement": "GALAP preemergence herbicidal rating", "setting": "GALAP (Galium); rate 0.1250 kg/ha", "value": 0.0}, {"measurement": "GALAP preemergence herbicidal rating", "setting": "GALAP (Galium); rate 0.2500 kg/ha", "value": 9.0}, {"measurement": "CASOB herbicidal rating", "setting": "CASOB (Sicklepod); rate 0.0158 kg/ha", "value": 1.0}, {"measurement": "CASOB herbicidal rating", "setting": "CASOB (Sicklepod); rate 0.0315 kg/ha", "value": 2.0}, {"measurement": "CASOB herbicidal rating", "setting": "CASOB (Sicklepod); rate 0.0630 kg/ha", "value": 1.0}, {"measurement": "Herbicidal rating CYPIR", "setting": "CYPIR (Rice Flatsedge); 0.1160 kg/ha", "value": 0.0}, {"measurement": "Herbicidal rating CYPIR", "setting": "CYPIR (Rice Flatsedge); 0.2310 kg/ha", "value": 0.0}, {"measurement": "Herbicidal rating CYPIR", "setting": "CYPIR (Rice Flatsedge); 0.4630 kg/ha", "value": 5.0}, {"measurement": "ORYSAT herbicidal rating", "setting": "ORYSAT (Rice, Tebonnet) [3]; rate 0.0158 kg/ha", "value": 2.5}, {"measurement": "ORYSAT herbicidal rating", "setting": "ORYSAT (Rice, Tebonnet) [3]; rate 0.0315 kg/ha", "value": 3.0}, {"measurement": "ORYSAT herbicidal rating", "setting": "ORYSAT (Rice, Tebonnet) [3]; rate 0.0630 kg/ha", "value": 4.5}, {"measurement": "Herbicidal rating CYPSE", "setting": "CYPSE (Flatsedge); rate 0.1160 kg/ha", "value": 4.0}, {"measurement": "Herbicidal rating CYPSE", "setting": "CYPSE (Flatsedge); rate 0.2310 kg/ha", "value": 4.0}, {"measurement": "Herbicidal rating CYPSE", "setting": "CYPSE (Flatsedge); rate 0.4630 kg/ha", "value": 4.0}, {"measurement": "TRZAWR preemergence herbicidal rating", "setting": "[4]; rate 0.0156 kg/ha", "value": 0.0}, {"measurement": "TRZAWR preemergence herbicidal rating", "setting": "[4]; rate 0.0313 kg/ha", "value": 0.0}, {"measurement": "TRZAWR preemergence herbicidal rating", "setting": "[4]; rate 0.0625 kg/ha", "value": 1.0}, {"measurement": "TRZAWR preemergence herbicidal rating", "setting": "[4]; rate 0.1250 kg/ha", "value": 5.0}, {"measurement": "TRZAWR preemergence herbicidal rating", "setting": "[4]; rate 0.2500 kg/ha", "value": 7.0}, {"measurement": "SETVI preemergence herbicidal rating", "setting": "SETVI (Foxtail, Green); rate 0.0156 kg/ha", "value": 0.0}, {"measurement": "SETVI preemergence herbicidal rating", "setting": "SETVI (Foxtail, Green); rate 0.0313 kg/ha", "value": 7.0}, {"measurement": "SETVI preemergence herbicidal rating", "setting": "SETVI (Foxtail, Green); rate 0.0625 kg/ha", "value": 9.0}, {"measurement": "SETVI preemergence herbicidal rating", "setting": "SETVI (Foxtail, Green); rate 0.1250 kg/ha", "value": 9.0}, {"measurement": "SETVI preemergence herbicidal rating", "setting": "SETVI (Foxtail, Green); rate 0.2500 kg/ha", "value": 9.0}, {"measurement": "ZEAMX preemergence herbicidal rating", "setting": "ZEAMX (Corn, Field); rate 0.0156 kg/ha", "value": 2.0}, {"measurement": "ZEAMX preemergence herbicidal rating", "setting": "ZEAMX (Corn, Field); rate 0.0313 kg/ha", "value": 5.0}, {"measurement": "ZEAMX preemergence herbicidal rating", "setting": "ZEAMX (Corn, Field); rate 0.0625 kg/ha", "value": 7.0}, {"measurement": "ZEAMX preemergence herbicidal rating", "setting": "ZEAMX (Corn, Field); rate 0.1250 kg/ha", "value": 8.0}, {"measurement": "ZEAMX preemergence herbicidal rating", "setting": "ZEAMX (Corn, Field); rate 0.2500 kg/ha", "value": 9.0}, {"measurement": "ORYSAT preemergence herbicidal rating", "setting": "ORYSAT (Rice, Tebonnet) [5]; rate 0.0156 kg/ha", "value": 0.0}, {"measurement": "ORYSAT preemergence herbicidal rating", "setting": "ORYSAT (Rice, Tebonnet) [5]; rate 0.0313 kg/ha", "value": 0.0}, {"measurement": "ORYSAT preemergence herbicidal rating", "setting": "ORYSAT (Rice, Tebonnet) [5]; rate 0.0625 kg/ha", "value": 0.0}, {"measurement": "ORYSAT preemergence herbicidal rating", "setting": "ORYSAT (Rice, Tebonnet) [5]; rate 0.1250 kg/ha", "value": 5.0}, {"measurement": "ORYSAT preemergence herbicidal rating", "setting": "ORYSAT (Rice, Tebonnet) [5]; rate 0.2500 kg/ha", "value": 8.0}, {"measurement": "Herbicidal rating SAGPY", "setting": "[6]; 0.1160 kg/ha", "value": 4.0}, {"measurement": "Herbicidal rating SAGPY", "setting": "[6]; 0.2310 kg/ha", "value": 4.0}, {"measurement": "Herbicidal rating SAGPY", "setting": "[6]; 0.4630 kg/ha", "value": 5.0}, {"measurement": "Herbicidal rating MOOVA", "setting": "MOOVA (Monochoria); 0.1160 kg/ha", "value": 9.0}, {"measurement": "Herbicidal rating MOOVA", "setting": "MOOVA (Monochoria); 0.2310 kg/ha", "value": 9.0}, {"measurement": "Herbicidal rating MOOVA", "setting": "MOOVA (Monochoria); 0.4630 kg/ha", "value": 9.0}]}
